{"source": "paper PMC10066365", "about": "“Nemacol is a small molecule inhibitor of C. elegans vesicular acetylcholine transporter with anthelmintic potential” (Nature Communications, 2023)", "key": {"Haemonchus contortus": {"tested_on": "Haemonchus contortus", "test": "Haemonchus contortus L3 Migration Trap Assay (motility, 24 h exposure)"}, "[1]": {"tested_on": "Dirofilaria immitis microfilariae", "test": "Dirofilaria immitis microfilariae immobility assay (DiroImager, 72 h)", "settings": "Dirofilaria immitis microfilariae", "in_short": "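About 250 freshly purified microfilariae of the Missouri isolate per well in supplemented RPMI 1640, exposed to compound for 72 h. Motility scored by automated whole-plate optical imaging; medium with 1% DMSO as negative control.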"}, "rat VAChT": {"molecular_target": "T1, rat VAChT (Rattus norvegicus, UniProt Q62666)", "T1 construct": "expressed in transfected cells; host or cells: rat PC12 (PC12 A123.7) cells, stably transfected; shared by Dr. Ali Roghani (Texas Tech University)", "T1 sequence (Q62666 1-530)": "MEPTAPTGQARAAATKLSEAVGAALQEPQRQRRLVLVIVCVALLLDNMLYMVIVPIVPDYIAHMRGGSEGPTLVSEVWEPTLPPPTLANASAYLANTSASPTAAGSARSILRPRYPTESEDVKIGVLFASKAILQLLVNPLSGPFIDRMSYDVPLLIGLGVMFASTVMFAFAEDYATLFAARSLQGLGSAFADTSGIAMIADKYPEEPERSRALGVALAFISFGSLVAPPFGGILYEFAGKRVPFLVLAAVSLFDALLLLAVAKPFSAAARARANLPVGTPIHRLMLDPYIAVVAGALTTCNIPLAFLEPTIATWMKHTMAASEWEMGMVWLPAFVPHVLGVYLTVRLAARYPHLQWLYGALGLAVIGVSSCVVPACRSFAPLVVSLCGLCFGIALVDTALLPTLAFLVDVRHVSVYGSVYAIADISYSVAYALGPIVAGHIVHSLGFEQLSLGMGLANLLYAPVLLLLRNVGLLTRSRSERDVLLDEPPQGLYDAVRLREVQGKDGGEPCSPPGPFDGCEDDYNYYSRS", "test": "[3H]Vesamicol competitive radioligand binding, PC12 cells expressing ratVAChT", "settings": "[3H]Vesamicol binding"}, "C. elegans": {"tested_on": "C. elegans", "test": "C. elegans motor phenotype scoring on solid media (Punc/jerky-unc, coiled, paralyzed), wild-type young adults", "format": "in vivo, Caenorhabditis elegans", "settings": "for atypical locomotion (number of animals) / coiled (number of animals) / no phene (number of animals) / paralyzed (number of animals) / any phene: mean % fraction of young adults exhibiting any phenotype (coiled, jerky-Unc or paralyzed): one hour; for atypical locomotion (number of animals) / coiled (number of animals) / no phene (number of animals) / paralyzed (number of animals): young adults, 20 animals per trial, single technical replicate; for any phene: mean % fraction of young adults exhibiting any phenotype (coiled, jerky-Unc or paralyzed): mean of three biological replicates"}, "Pristionchus pacificus": {"tested_on": "Pristionchus pacificus", "test": "Pristionchus pacificus motor disruption dose-response on solid media, 1 h", "settings": "for mean % any phene: any phenotype (coiled, jerky-Unc or paralyzed) at one hour, mean of three biological replicates"}, "[2]": {"tested_on": "Dirofilaria immitis L3/L4", "test": "Dirofilaria immitis L3/L4 motility assay (DiroImager, 72 h)", "settings": "Dirofilaria immitis L4"}, "[3]": {"settings": "conc 3.75, count of 20 animals per trial, one hour"}, "[4]": {"settings": "conc 15, count of 20 animals per trial, one hour"}, "[5]": {"settings": "conc 60, count of 20 animals per trial, one hour"}}, "note": "Several values for one entry are separate records, joined by “and”; a condition that tells them apart may be missing. Equal values may be shown once. Read-outs that look alike come from different tables or passages of the source.", "data": [{"smiles": "CC1CCC(N2CCN(c3ccc(F)cc3)CC2)CC1", "note": "(stereo not drawn) [Nemacol-53]", "values": [{"measurement": "effect on Ivermectin's ability to paralyze H. contortus", "setting": "Haemonchus contortus; EC30 concentration of Nemacol-53 (26.4 µM), P = 0.002", "result": "significantly enhance"}, {"measurement": "EC30", "setting": "Haemonchus contortus; H. contortus L3 motility", "result": 26, "unit": "µM"}, {"measurement": "EC50", "setting": "Haemonchus contortus; Haemonchus contortus", "result": 40.6, "unit": "µM"}, {"measurement": "% effect (motility), DIROIM MF", "setting": "[1]; 0.016 µM", "result": 0, "unit": "%"}, {"measurement": "% effect (motility), DIROIM MF", "setting": "[1]; 0.08 µM", "result": 0, "unit": "%"}, {"measurement": "% effect (motility), DIROIM MF", "setting": "[1]; 0.4 µM", "result": 0, "unit": "%"}, {"measurement": "% effect (motility), DIROIM MF", "setting": "[1]; 2 µM", "result": 0, "unit": "%"}, {"measurement": "% effect (motility), DIROIM MF", "setting": "[1]; 10 µM", "result": 0, "unit": "%"}, {"measurement": "Ki", "setting": "rat VAChT; PC12, experiment 1, read-out: expt 1 Ki (M) vs. rat VAChT (PC12)", "result": "5.54e-07", "unit": "M"}, {"measurement": "Ki", "setting": "rat VAChT; PC12, experiment 2, read-out: expt 2 Ki (M) vs. rat VAChT (PC12)", "result": "1.04e-06", "unit": "M"}, {"measurement": "Ki", "setting": "rat VAChT; rat VAChT (PC12), mean of 2-3 experiments, read-out: mean Ki", "result": "7.98e-07", "unit": "M"}, {"measurement": "atypical locomotion (number of animals)", "setting": "C. elegans; 3.75uM", "result": "6 and 2 and 1 and 3 and 13 and 8"}, {"measurement": "coiled (number of animals)", "setting": "C. elegans; 3.75uM", "result": 0}, {"measurement": "no phene (number of animals)", "setting": "C. elegans; 3.75uM", "result": "14 and 18 and 19 and 17 and 7 and 12"}, {"measurement": "paralyzed (number of animals)", "setting": "C. elegans; 3.75uM", "result": 0}, {"measurement": "any phene: mean % fraction of young adults exhibiting any phenotype (coiled, jerky-Unc or paralyzed)", "setting": "C. elegans; 3.75uM", "result": 27.5, "unit": "%"}, {"measurement": "atypical locomotion (number of animals)", "setting": "C. elegans; 15uM", "result": "3 and 9 and 11 and 13 and 18 and 17"}, {"measurement": "coiled (number of animals)", "setting": "C. elegans; 15uM", "result": "0 and 1 and 4 and 3 and 2"}, {"measurement": "no phene (number of animals)", "setting": "C. elegans; 15uM", "result": "4 and 2 and 0 and 3"}, {"measurement": "paralyzed (number of animals)", "setting": "C. elegans; 15uM", "result": "13 and 8 and 5 and 4 and 0"}, {"measurement": "any phene: mean % fraction of young adults exhibiting any phenotype (coiled, jerky-Unc or paralyzed)", "setting": "C. elegans; 15uM", "result": 92.5, "unit": "%"}, {"measurement": "atypical locomotion (number of animals)", "setting": "C. elegans; 60uM", "result": "0 and 2"}, {"measurement": "coiled (number of animals)", "setting": "C. elegans; 60uM", "result": "13 and 15 and 9 and 12 and 16"}, {"measurement": "no phene (number of animals)", "setting": "C. elegans; 60uM", "result": 0}, {"measurement": "paralyzed (number of animals)", "setting": "C. elegans; 60uM", "result": "7 and 5 and 9 and 6 and 2"}, {"measurement": "EC50", "setting": "C. elegans; Caenorhabditis elegans, any motor phenotype after 1 h on solid media, ± 95% CI, read-out: C. elegans - motor disruption EC50", "result": "5.5 ± 1.6", "unit": "µM"}, {"measurement": "EC50", "setting": "Pristionchus pacificus; Pristionchus pacificus, 1 h, read-out: P. pacificus motor disruption EC50", "result": "12.8 ± 1.2", "unit": "µM"}, {"measurement": "mean % any phene", "setting": "Pristionchus pacificus; conc 3.75", "result": 8.333, "unit": "%"}, {"measurement": "rep 1 atypical locomotion", "setting": "Pristionchus pacificus; [3]", "result": "2 and 3"}, {"measurement": "rep 1 coiled", "setting": "Pristionchus pacificus; [3]", "result": 0}, {"measurement": "rep 1 no phene", "setting": "Pristionchus pacificus; [3]", "result": "18 and 17"}, {"measurement": "rep 1 paralyzed", "setting": "Pristionchus pacificus; [3]", "result": 0}, {"measurement": "rep 2 atypical locomotion", "setting": "Pristionchus pacificus; [3]", "result": 1}, {"measurement": "rep 2 coiled", "setting": "Pristionchus pacificus; [3]", "result": 0}, {"measurement": "rep 2 no phene", "setting": "Pristionchus pacificus; [3]", "result": 19}, {"measurement": "rep 2 paralyzed", "setting": "Pristionchus pacificus; [3]", "result": 0}, {"measurement": "rep 3 atypical locomotion", "setting": "Pristionchus pacificus; [3]", "result": "2 and 1"}, {"measurement": "rep 3 coiled", "setting": "Pristionchus pacificus; [3]", "result": 0}, {"measurement": "rep 3 no phene", "setting": "Pristionchus pacificus; [3]", "result": "18 and 19"}, {"measurement": "rep 3 paralyzed", "setting": "Pristionchus pacificus; [3]", "result": 0}, {"measurement": "mean % any phene", "setting": "Pristionchus pacificus; conc 15", "result": 57.5, "unit": "%"}, {"measurement": "rep 1 atypical locomotion", "setting": "Pristionchus pacificus; [4]", "result": "12 and 13"}, {"measurement": "rep 1 no phene", "setting": "Pristionchus pacificus; [4]", "result": 7}, {"measurement": "rep 1 paralyzed", "setting": "Pristionchus pacificus; [4]", "result": 0}, {"measurement": "rep 2 paralyzed", "setting": "Pristionchus pacificus; [4]", "result": 0}, {"measurement": "rep 3 coiled", "setting": "Pristionchus pacificus; [4]", "result": 2}, {"measurement": "mean % any phene", "setting": "Pristionchus pacificus; conc 60", "result": 100, "unit": "%"}, {"measurement": "rep 1 atypical locomotion", "setting": "Pristionchus pacificus; [5]", "result": 0}, {"measurement": "rep 1 coiled", "setting": "Pristionchus pacificus; [5]", "result": "8 and 13"}, {"measurement": "rep 1 no phene", "setting": "Pristionchus pacificus; [5]", "result": 0}, {"measurement": "rep 1 paralyzed", "setting": "Pristionchus pacificus; [5]", "result": "12 and 7"}, {"measurement": "rep 2 coiled", "setting": "Pristionchus pacificus; [5]", "result": "9 and 14"}, {"measurement": "rep 2 no phene", "setting": "Pristionchus pacificus; [5]", "result": 0}, {"measurement": "rep 2 paralyzed", "setting": "Pristionchus pacificus; [5]", "result": "10 and 6"}, {"measurement": "rep 3 atypical locomotion", "setting": "Pristionchus pacificus; [5]", "result": "2 and 1"}, {"measurement": "rep 3 coiled", "setting": "Pristionchus pacificus; [5]", "result": "7 and 12"}, {"measurement": "rep 3 no phene", "setting": "Pristionchus pacificus; [5]", "result": 0}, {"measurement": "rep 3 paralyzed", "setting": "Pristionchus pacificus; [5]", "result": "11 and 7"}, {"measurement": "% effect (motility), DIROIM L4", "setting": "[2]; 10 µM", "result": 5, "unit": "%"}, {"measurement": "% effect (motility), DIROIM L4", "setting": "[2]; 50 µM", "result": 20, "unit": "%"}]}]}
